According to patent US20240069027A1, “USE OF NITROGEN-DOPED CARBON FLUORESCENT QUANTUM DOT IN PREPARATION OF PRODUCT FOR DETECTING AEROBIC GLYCOLYSIS” (SHANGHAI NINTH PEOPLE'S HOSPITAL, SHANGHAI JIAOTONG …, priority 2020, published 2024):

Test system: A375 cells
Experiment: Aerobic glycolysis (NAD+) fluorescence of PFK15-treated A375 cells read out with C3N quantum dots
Type: cell-based
Details: PFK15 20 nM, 12 h; then C3N quantum dots 1 μg/mL 2 h at 25° C.; excitation 400 nm
Description: A375 cells were selected as the samples to be tested with a cell concentration of 10^5.
[…] (PFK15, 20 nM) was added to the cell samples to be tested and incubated for 12 h. C3N quantum dots (with a diameter of 1 nm, a concentration of 1 μg/mL, a solvent of saline) were selected as the aerobic glycolysis detection product. 1 μL of C3N quantum dots were added to the samples to be tested and incubated for 2 h at 25° C. The fluorescence of the samples was observed by a fluorescence microscope (with an excitation wavelength of 400 nm). It can be seen that the fluorescence of the A375 cells with PFK15 treatment (PFK15 can block the aerobic glycolysis metabolism and reduce the NAD^+ concentration in cytoplasm) was decreased by 43% compared with that of the group without PFK15 treatment (results were shown in FIG. 5).

## O=C(C=Cc1ccc2ccccc2n1)c1ccncc1 [PFK15, 1-(4-pyridinyl)-3-(2-quinolinyl)-2-propen-1-one]
  decrease of fluorescence of A375 cells compared with group without PFK15 treatment: 43%
